Values joined by “and” are separate entries in the source; they are usually repeats but may differ in a detail not shown here. Equal values may be shown once. Inconclusive results are not listed.
Test system: BDF1 mice, colon carcinoma 38 sc, T/C %
Test: NCI In Vivo Anticancer Drug Screen. Data for tumor model Colon Carcinoma 38 (subcutaneous) in B6D2F1 (BDF1) mice
Conditions: endpoint: median tumor weight (est.), higher = larger tumour
Outline: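 Ratio of survival or tumor size, compound-treated animals relative to vehicle controls, in tumor-bearing mice.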

[1] = dose: 12.5 mg/kg/injection, schedule: Q07DX002 (ip), vehicle: suspension in saline
[2] = dose: 1.5 mg/kg/injection, schedule: Q07DX002 (ip), vehicle: Klucel (hydroxypropylcellulose) (HPC)
[3] = dose: 12.5 mg/kg/injection, schedule: Q07DX002 (ip), vehicle: saline

C[C@]12C=CC(=O)C=C1CC[C@@H]1[C@@H]2[C@@H](O)C[C@@]2(C)[C@H]1CC[C@]2(O)C(=O)CO
T/C (dose: 40.0 mg/kg/injection, schedule: Q07DX003 (ip), vehicle: Klucel (hydroxypropylcellulose) (HPC)): 100 % of control
T/C (dose: 80.0 mg/kg/injection, schedule: Q07DX003 (ip), vehicle: Klucel (hydroxypropylcellulose) (HPC)): 56 % of control
T/C (dose: 160.0 mg/kg/injection, schedule: Q07DX003 (ip), vehicle: Klucel (hydroxypropylcellulose) (HPC)): 58 % of control
T/C (dose: 320.0 mg/kg/injection, schedule: Q07DX003 (ip), vehicle: Klucel (hydroxypropylcellulose) (HPC)): 30 % of control
T/C (dose: 640.0 mg/kg/injection, schedule: Q07DX003 (ip), vehicle: Klucel (hydroxypropylcellulose) (HPC)): 24 % of control

[Cl][Pt+2][Cl].[NH-]CC1(C[NH-])CCC1
T/C [1]: 50 % of control

CCS/C(SC)=C(/c1ccccc1)[P+](c1ccccc1)(c1ccccc1)c1ccccc1
T/C [2]: 87 % of control
T/C (dose: 3.0 mg/kg/injection, schedule: Q07DX002 (ip), vehicle: Klucel (hydroxypropylcellulose) (HPC)): 116 % of control

Cc1cc(O)c2c(c1O)C(=O)c1cccc(O)c1C2=O
T/C (dose: 0.18 mg/kg/injection, schedule: Q07DX002 (ip), vehicle: Klucel (hydroxypropylcellulose) (HPC)): 86 % of control
T/C (dose: 0.37 mg/kg/injection, schedule: Q07DX002 (ip), vehicle: Klucel (hydroxypropylcellulose) (HPC)): 60 % of control
T/C (dose: 0.75 mg/kg/injection, schedule: Q07DX002 (ip), vehicle: Klucel (hydroxypropylcellulose) (HPC)): 59 % of control
T/C [2]: 110 % of control

Oc1ccc(O)cc1
T/C (dose: 6.25 mg/kg/injection, schedule: Q07DX002 (ip), vehicle: suspension in saline): 80 % of control
T/C [1]: 95 % of control
T/C (dose: 25.0 mg/kg/injection, schedule: Q07DX002 (ip), vehicle: suspension in saline): 108 % of control
T/C (dose: 50.0 mg/kg/injection, schedule: Q07DX002 (ip), vehicle: suspension in saline): 94 % of control
T/C (dose: 100.0 mg/kg/injection, schedule: Q07DX002 (ip), vehicle: suspension in saline): 97 % of control

CC(C)(C)N1CC1CNC(=O)C(=O)NCC1CN1C(C)(C)C (configuration not stated)
T/C (dose: 3.12 mg/kg/injection, schedule: Q07DX002 (ip), vehicle: saline with Tween-80): 81 % of control and 106 % of control

COC(=O)Nc1nc2ccc(C3(c4ccc(F)cc4)OCCO3)cc2[nH]1
T/C [3]: 111 % of control and 90 % of control
T/C (dose: 25.0 mg/kg/injection, schedule: Q07DX002 (ip), vehicle: saline): 70 % of control and 87 % of control

C1=CCOCOC1
T/C (dose: 12.5 mg/kg/injection, schedule: Q07DX002 (ip), vehicle: saline with Tween-80): 77 % of control
T/C (dose: 25.0 mg/kg/injection, schedule: Q07DX002 (ip), vehicle: saline with Tween-80): 94 % of control and 104 % of control
T/C (dose: 100.0 mg/kg/injection, schedule: Q07DX002 (ip), vehicle: saline with Tween-80): 72 % of control
T/C (dose: 200.0 mg/kg/injection, schedule: Q07DX002 (ip), vehicle: saline with Tween-80): 58 % of control

CC1=C(/C=C/C(C)=C/C=C/C(C)=C/C(=O)O)C(C)(C)CCC1
T/C (dose: 3.12 mg/kg/injection, schedule: Q07DX003 (ip), vehicle: saline with Tween-80): 87 % of control
T/C (dose: 6.25 mg/kg/injection, schedule: Q07DX003 (ip), vehicle: saline with Tween-80): 96 % of control
T/C (dose: 8.0 mg/kg/injection, schedule: Q07DX003 (ip), vehicle: saline with Tween-80): 103 % of control
T/C (dose: 12.5 mg/kg/injection, schedule: Q07DX003 (ip), vehicle: saline with Tween-80): 99 % of control
T/C (dose: 25.0 mg/kg/injection, schedule: Q07DX003 (ip), vehicle: saline with Tween-80): 100 % of control
T/C (dose: 32.0 mg/kg/injection, schedule: Q07DX003 (ip), vehicle: saline with Tween-80): 98 % of control
T/C (dose: 64.0 mg/kg/injection, schedule: Q07DX003 (ip), vehicle: saline with Tween-80): 102 % of control

O=C1C=CC(n2cc(F)c(=O)[nH]c2=O)O1 (configuration not stated)
T/C [3]: 113 % of control
T/C (dose: 100.0 mg/kg/injection, schedule: Q07DX002 (ip), vehicle: saline): 54 % of control
T/C (dose: 200.0 mg/kg/injection, schedule: Q07DX002 (ip), vehicle: saline): 116 % of control

COc1cc([C@@H]2c3cc4c(cc3[C@@H](OC3OC5CO[C@@H](c6cccs6)OC5C(O)C3O)[C@H]3COC(=O)[C@H]23)OCO4)cc(OC)c1O (some centres not stated)
T/C (dose: 1.0 mg/kg/injection, schedule: Q07DX002 (ip), vehicle: suspension in saline): 88 % of control
T/C (dose: 2.0 mg/kg/injection, schedule: Q07DX002 (ip), vehicle: suspension in saline): 113 % of control and 100 % of control
T/C (dose: 4.0 mg/kg/injection, schedule: Q07DX002 (ip), vehicle: suspension in saline): 63 % of control and 75 % of control
